Values quoted from earlier work as cited in patent US20170002355A1, “cGAP-PNA MULTIVALENT PEPTIDE NUCLEIC ACID LIGAND DISPLAY” (THE USA, AS REPRESENTED BY THE SECRETARY, DEPART- MENT OF …, priority 2014, published 2017).

Tests used:
hA1AR = target: T1, hA1AR (Homo sapiens, UniProt P30542); conditions: published literature values of XAC (Kecskes et al. 2011)
T1 construct: expressed in transfected cells
T1 sequence (P30542 1-326): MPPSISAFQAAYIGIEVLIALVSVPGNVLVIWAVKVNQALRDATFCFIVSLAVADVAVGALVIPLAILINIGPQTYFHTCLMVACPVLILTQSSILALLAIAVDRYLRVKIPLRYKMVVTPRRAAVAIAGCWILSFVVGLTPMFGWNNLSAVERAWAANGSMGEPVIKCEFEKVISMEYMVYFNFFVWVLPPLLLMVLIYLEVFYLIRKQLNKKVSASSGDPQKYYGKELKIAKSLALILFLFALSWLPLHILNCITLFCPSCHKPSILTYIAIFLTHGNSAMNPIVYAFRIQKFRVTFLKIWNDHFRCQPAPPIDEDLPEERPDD

hA3AR = target: T2, hA3AR (Homo sapiens, UniProt P0DMS8); conditions: published literature values of XAC (Kecskes et al. 2011)
T2 construct: expressed in transfected cells
T2 sequence (P0DMS8 1-318): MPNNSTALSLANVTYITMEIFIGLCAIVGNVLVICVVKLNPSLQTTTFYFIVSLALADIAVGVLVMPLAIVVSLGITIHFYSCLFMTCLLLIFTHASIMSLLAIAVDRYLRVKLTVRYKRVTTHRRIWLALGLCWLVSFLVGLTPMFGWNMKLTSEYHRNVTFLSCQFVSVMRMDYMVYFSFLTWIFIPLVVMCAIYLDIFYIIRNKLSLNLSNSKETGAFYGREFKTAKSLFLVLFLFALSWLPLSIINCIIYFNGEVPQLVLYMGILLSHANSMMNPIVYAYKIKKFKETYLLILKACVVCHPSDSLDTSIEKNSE

For `CCCn1c(=O)c2[nH]c(-c3ccc(OCC(=O)NCCN)cc3)nc2n(CCC)c1=O` [XAC, N-(2-aminoethyl)-2-[4-(2,3,6,7-tetrahydro-2,6-dioxo-1,3-dipropyl-1H-purin-8-yl)phenoxy]-acetamide], which “A1:A2A selectivity, literature” value (hA1AR) is on record?
Its value is 1.4.

What about the “A3:A2A selectivity, literature” value (hA3AR) of the same molecule?
The value was 2.4.
